Measurements reported in US10413538B2, “Administration of karenitecin for the treatment of platinum and/or taxane chemotherapy-resistant or -refractory advanced ovarian cancer” (priority 2013, dated 2019).
Like-named read-outs stand apart in the source and are kept apart here.

Legend:
[1] = Preclinical toxicology, oral single daily doses for five consecutive days; conditions: beagle dogs
[2] = system: MDR/MRP, Breast Cancer Resistance Protein (BCRP); conditions: cited from earlier work
[3] = system: MDR/MRP, Breast Cancer Resistance Protein (BCRP)
[4] = system: stage III/IV advanced epithelial ovarian cancer resistant or refractory to platinum- and taxane-based chemotherapy; experiment: Phase III clinical study of Karenitecin versus Topotecan: efficacy (PFS, OS); format: in vivo, human
Description: The Primary Endpoint of the disclosed Phase III clinical study was Progression Free Survival (“PFS”); which was defined as the time period from the date of randomization to the date of first radiographically documented Progressive Disease (“PD”) or date of death due to any cause, taking either event date that occurred first. The date of PD was determined by radiographical objective disease (RECIST) measurement method. The Secondary Endpoints of the disclosed Phase III clinical study included: (i) Overall Survival (hereinafter “OS”), defined as the time from the date of randomization to the date of death due to any cause; (ii) Incidence of anemia, defined as the proportion of patients who experience ≥grade 3 anemia based on National Cancer Institute Common Terminology Criteria for Adverse Events (NCI-CTCAE) criteria at any time post-baseline after receiving study treatment; (iii) Incidence of neutropenia (including febrile neutropenia), defined as the proportion of patients who experience ≥grade 3 neutropenia based on NCI-CTCAE criteria at any time post-baseline after receiving study treatment; and (iv) Incidence of thrombocytopenia, defined as the proportion of patients who experience ≥grade 3 thrombocytopenia based on NCI-CTCAE criteria at any time post-baseline after receiving study treatment.
All patients admitted to this Phase III clinical trial were documented to be platinum- and/or taxane-resistant or refractory and have incurable disease. […] It is important to note that, currently, there is no FDA-approved chemotherapeutic drug for this specific aforementioned indication.
Approximately 80 study centers participated in this Phase III clinical study. The primary endpoint was Progression Free Survival (PFS), defined as the time period from the date of randomization to the date of first radiographically documented progressive disease or disease progression (“PD”) or date of death due to any cause, taking the event date that occurs first.
The primary endpoint was Progression Free Survival (PFS); defined as the time period from the date of randomization to the date of first radiographically documented progressive disease (PD) or date of death due to any cause, taking the event date that occurs first. The date of PD was determined by radiographically objective disease (RECIST) measurement. Secondary Endpoints: • Overall Survival (OS), defined as the time from the date of randomization to the date of death due to any cause. • Incidence of anemia, defined as the proportion of patients who experience ≥grade 3 anemia based on National Cancer Institute Common Terminology Criteria for Adverse Events (NCI-CTCAE) criteria at any time post-baseline after receiving study treatment. • Incidence of neutropenia (including febrile neutropenia), defined as the proportion of patients who experience ≥grade 3 neutropenia based on NCI-CTCAE criteria at any time post-baseline after receiving study treatment. • Incidence of thrombocytopenia, defined as the proportion of patients who experience ≥grade 3 thrombocytopenia based on NCI-CTCAE criteria at any time post-baseline after receiving study treatment.
Patients underwent procedures throughout four (4) defined periods in this study, which are briefly described below. Various clinical, laboratory, and disease evaluations were required for each of these for each periods.
Period I (Screening and Randomization): Patient eligibility was determined by compliance with protocol-specified inclusion and exclusion criteria. Patients who signed the informed consent, and successfully complete the screening process, including documentation of disease status by radiographic measures, were randomized to receive study treatment.
Period III (End of Treatment): Within ±3 days of date of treatment discontinuation, end-of treatment procedures will be conducted during Period III.

[5] = dog, in vivo, po
[6] = Glucuronidation / metabolism; format: in vitro ADME
[7] = Lactone stability and lactone half-life in humans/plasma; format: in vivo, human
[8] = in vivo, iv
[9] = biological target: T1, Topoisomerase I (Homo sapiens, UniProt P11387); experiment: Topoisomerase I inhibition; format: biochemical
T1 sequence (P11387 1-765): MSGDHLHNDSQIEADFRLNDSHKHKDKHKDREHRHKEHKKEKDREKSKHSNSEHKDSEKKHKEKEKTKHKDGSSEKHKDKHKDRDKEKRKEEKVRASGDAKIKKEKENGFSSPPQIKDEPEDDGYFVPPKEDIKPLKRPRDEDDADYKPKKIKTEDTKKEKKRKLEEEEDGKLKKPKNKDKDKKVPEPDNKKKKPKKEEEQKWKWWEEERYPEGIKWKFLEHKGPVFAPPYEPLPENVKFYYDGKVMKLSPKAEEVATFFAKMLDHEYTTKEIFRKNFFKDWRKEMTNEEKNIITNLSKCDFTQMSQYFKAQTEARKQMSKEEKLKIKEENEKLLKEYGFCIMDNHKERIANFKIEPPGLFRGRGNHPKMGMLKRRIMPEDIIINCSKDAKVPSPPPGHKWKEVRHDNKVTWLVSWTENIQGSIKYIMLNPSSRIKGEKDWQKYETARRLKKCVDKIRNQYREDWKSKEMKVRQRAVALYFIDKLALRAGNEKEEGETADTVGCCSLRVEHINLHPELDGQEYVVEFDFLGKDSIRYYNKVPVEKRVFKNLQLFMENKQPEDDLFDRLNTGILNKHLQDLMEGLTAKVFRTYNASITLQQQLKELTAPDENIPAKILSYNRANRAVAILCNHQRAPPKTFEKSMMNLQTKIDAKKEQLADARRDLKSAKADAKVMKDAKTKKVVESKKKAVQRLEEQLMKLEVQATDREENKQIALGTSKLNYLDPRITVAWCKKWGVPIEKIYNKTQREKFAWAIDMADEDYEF

CC[C@@]1(O)C(=O)OCc2c1cc1n(c2=O)Cc2c-1nc1ccccc1c2CC[Si](C)(C)C [Karenitecin, (4S)-4-ethyl-4-hydroxy-11-[2-(trimethylsilyl)ethyl]-1H-pyrano[3′:4′:6,7]indolizino[1,2-b]quinoline-3,14(4H,12H)-dione]
oral MTD relative to intravenous (I.V.) MTD [1]: approximately 2 times
sensitivity to tumor-mediated drug resistance mechanisms including BCRP [2]: insensitive to all commonly-known tumor-mediated drug resistance mechanisms
susceptibility to MDR/MRP drug resistance [3]: lacks susceptibility to MDR/MRP drug resistance
overall survival hazard ratio, Karenitecin vs Topotecan ([4]; Adenocarcinoma (grade ≥2) not otherwise specified, P-value 0.7893): 0.898
PFS HR, Karenitecin vs Topotecan ([4]; Adenocarcinoma (grade ≥2) not otherwise specified, P-value=0.3700): 0.684
PFS HR, Karenitecin vs Topotecan ([4]; Best response SD after 6 cycles in a first-line setting, P-value=0.9908): 0.992
PFS HR, Karenitecin vs Topotecan ([4]; ECOG Performance Status 0, P-value=0.0249): 0.662
PFS HR, Karenitecin vs Topotecan ([4]; ECOG Performance Status 2, P-value=0.7481): 0.896
PFS HR, Karenitecin vs Topotecan ([4]; FIGO Stage 111B, P-value=0.6225): 0.722
overall survival hazard ratio, Karenitecin vs Topotecan ([4]; FIGO Stage IV, P-value 0.4516): 0.892
PFS HR, Karenitecin vs Topotecan ([4]; FIGO Stage IV, all events, P-value=0.0556): 0.741
PFS HR, Karenitecin vs Topotecan ([4]; FIGO Stage IV, first 254 PFS events, P-value=0.0260): 0.669
overall survival hazard ratio, Karenitecin vs Topotecan ([4]; Histological Stage: G1-well differentiated, P-value 0.974): 0.9612
PFS HR, Karenitecin vs Topotecan ([4]; Histological Stage: G1-well differentiated, P-value=0.8561): 0.904
PFS HR, Karenitecin vs Topotecan ([4]; Histological Stage: G2-moderately differentiated, P-value=0.2982): 0.835
overall survival hazard ratio, Karenitecin vs Topotecan ([4]; Histopathology Class: Undifferentiated carcinoma, P-value 0.701): 0.6426
median PFS advantage in favor of Karenitecin ([4]; Histopathology class: Mucinous adenocarcinoma subtype): 2 month
overall survival hazard ratio, Karenitecin vs Topotecan ([4]; Histopathology class: Mucinous adenocarcinoma, P-value 0.7321): 0.841
PFS HR, Karenitecin vs Topotecan ([4]; Histopathology class: serous adenocarcinoma, P-value=0.2829): 0.873
PFS HR, Karenitecin vs Topotecan ([4]; Ovary as primary site of disease, P-value=0.2606): 0.885
median progression-free survival (PFS) advantage in favor of Karenitecin (as compared with Topotecan) ([4]; overall trial population, IRC): greater than 6 week
PFS Hazard Ratio (HR), Karenitecin vs Topotecan ([4]; overall trial population, P-value=0.261): 0.885
PFS HR, Karenitecin vs Topotecan ([4]; resistant subject sub-population, P-value=0.144): 0.822
PFS HR, Karenitecin vs Topotecan ([4]; subpopulation refractory or resistant and/or mucinous, first 254 PFS events, P-value=0.0849): 0.770
toxicities observed [5]: anorexia; weight loss; gastrointestinal toxicity (manifested as diarrhea with hemorrhage); occasional vomiting; and myelosuppression
A-ring or B-ring glucuronidation [6]: does not undergo A-ring or B-ring glucuronidation
half-life in active lactone form in plasma compared with other commercially-available camptothecins [7]: longer half-life in its active lactone form in plasma
toxicities observed [8]: reversible myelosuppression (predominantly neutropenia), diarrhea, emesis and mucositis (canine)
Topoisomerase I inhibition [9]: potent inhibitor of Topoisomerase I
